Reference: BindingDB's records for doi:10.1021/jm800043g (Amgen, 2008)

molecular target: Hepatocyte growth factor receptor (Homo sapiens, UniProt P08581); test: HTRF Kinase Inhibition Assay; conditions: pH 7.4; 22 °C
Procedure: In vitro kinase assays were done to establish IC50 values against recombinant enzymes using homogeneous time-resolved fluorescence (HTRF) assay. Molecules were tested in a 10-point serial dilution using an ATP concentration of two thirds Km values that were determined for the enzymes and calculated using the Eadie-Hofstee and Lineweaver-Burke methods. The fluorescence ratios were read on a Rubystar instrument (BMG labtech Inc.).

Compound | IC50 [nM]
COc1ccc2c(OCc3nnc4ccc(-c5cc(C)cs5)nn34)ccnc2c1 [7-methoxy-4-{[6-(4-methylthiophen-2-yl)-[1,2,4]triazolo[4,3-a]pyridazin-3-yl]methoxy}quinoline] | 1
COc1ccc2c(OCc3nnc4ccc(-c5cccs5)nn34)ccnc2c1 [7-methoxy-4-{[6-(thiophen-2-yl)-[1,2,4]triazolo[4,3-a]pyridazin-3-yl]methoxy}quinoline] | 2
COc1ccc2c(OCc3nnc4ccc(-c5ccsc5)nn34)ccnc2c1 [7-methoxy-4-{[6-(thiophen-3-yl)-[1,2,4]triazolo[4,3-a]pyridazin-3-yl]methoxy}quinoline] | 4
